Legend:
Experiment in all cases: relative viability (nuclei count vs DMSO), 5 days (fraction); higher = more cells survive
[1] = compound: Cc1ccc2nc(NCCN)c3ncc(C)n3c2c1 + CC(C)C[C@H](NC(=O)[C@H](Cc1ccccc1)NC(=O)c1cnccn1)B(O)O [Bortezomib] (partner 0.002 µM)
In short: (§1)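 After 5 days of treatment, lung cancer cells in 1536-well plates were fixed and stained in a single step (final 0.05% Triton X-100, 1% formaldehyde, 1 ug/ml Hoechst) and their nuclei counted on 4× images. Treatment had been applied by pin tool the day after seeding as one drug alone or as a fixed anchor-drug dose with five library-drug doses (not always all listed) in √10 steps. Relative viability is the nuclei count of treated wells divided by that of vehicle wells, and values are medians of duplicate plates.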

[2] = compound: Cc1ccc2nc(NCCN)c3ncc(C)n3c2c1 + CS(=O)(=O)N1CCN(Cc2cc3nc(-c4cccc5[nH]ncc45)nc(N4CCOCC4)c3s2)CC1 [Pictilisib] (partner 1 µM)
In short: as §1

[3] = compound: Cc1ccc2nc(NCCN)c3ncc(C)n3c2c1 + O=C(c1cc(Cc2n[nH]c(=O)c3ccccc23)ccc1F)N1CCN(C(=O)C2CC2)CC1 [Olaparib] (partner 8 µM)
In short: as §1

Salubrinal + Dasatinib = compound: O=C(/C=C/c1ccccc1)NC(NC(=S)Nc1cccc2cccnc12)C(Cl)(Cl)Cl [Salubrinal] + Cc1nc(Nc2ncc(C(=O)Nc3c(C)cccc3Cl)s2)cc(N2CCN(CCO)CC2)n1 [Dasatinib] (partner 0.075 µM)
In short: as §1

| Cell Line | relative viability ([1]; first compound 0.04 µM) | relative viability ([1]; first compound 0.1265 µM) | relative viability ([1]; first compound 0.4 µM) | relative viability ([1]; first compound 1.265 µM) | relative viability ([1]; first compound 4 µM) | relative viability ([2]; first compound 0.04 µM) | relative viability ([2]; first compound 0.1265 µM) | relative viability ([2]; first compound 0.4 µM) | relative viability ([2]; first compound 1.265 µM) | relative viability ([2]; first compound 4 µM) | relative viability ([3]; first compound 0.04 µM) | relative viability ([3]; first compound 0.1265 µM) | relative viability ([3]; first compound 0.4 µM) | relative viability ([3]; first compound 1.265 µM) | relative viability ([3]; first compound 4 µM) | relative viability (Salubrinal + Dasatinib; first compound 0.08 µM) | relative viability (Salubrinal + Dasatinib; first compound 0.253 µM) | relative viability (Salubrinal + Dasatinib; first compound 0.8 µM) | relative viability (Salubrinal + Dasatinib; first compound 2.53 µM) | relative viability (Salubrinal + Dasatinib; first compound 8 µM) |
| --- | --- | --- | --- | --- | --- | --- | --- | --- | --- | --- | --- | --- | --- | --- | --- | --- | --- | --- | --- | --- |
| EPLC-272H | 0.914 | 0.782 | 0.911 | 0.805 | 0.97 | 0.33 | 0.356 | 0.288 | 0.336 | 0.306 | 0.869 | 0.814 | 0.98 | 0.686 | 0.778 | 0.41 | 0.324 | 0.357 | 0.383 | 0.294 |
| PC-3 [JPC-3] | 0.863 | 0.893 | 0.723 | 0.842 | 0.707 | 0.758 | 0.752 | 0.731 | 0.725 | 0.7 | 1.23 | 1.09 | 1.13 | 1.11 | 1.02 | 1.14 | 0.762 | 1.1 | 0.966 | 0.961 |
| NCI-H650 | 0.863 | 0.673 | 0.73 | 0.859 | 0.621 | 0.927 | 0.827 | 0.785 | 0.767 | 0.946 | 0.374 | 0.364 | 0.39 | 0.393 | 0.399 | 0.425 | 0.462 | 0.462 | 0.474 | 0.413 |
| NCI-H838 | 0.878 | 0.9 | 0.615 | 0.631 | 0.739 | 0.43 | 0.416 | 0.409 | 0.423 | 0.365 | 0.791 | 0.717 | 0.709 | 0.759 | 0.696 | 0.304 | 0.288 | 0.318 | 0.262 | 0.266 |
| COR-L 105 | 0.89 | 0.867 | 0.723 | 0.853 | 0.737 | 0.507 | 0.399 | 0.422 | 0.468 | 0.31 | 0.656 | 0.883 | 0.665 | 0.533 | 0.642 | 0.365 | 0.325 | 0.345 | 0.317 | 0.319 |
| NCI-H2405 | 1.03 | 1.03 | 0.964 | 0.969 | 0.918 | 0.442 | 0.443 | 0.441 | 0.511 | 0.396 | 0.91 | 0.795 | 0.927 | 0.825 | 0.779 | 0.252 | 0.223 | 0.224 | 0.2 | 0.204 |
| NCI-H661 | 0.909 | 0.868 | 0.595 |  | 0.651 | 0.511 | 0.514 | 0.421 | 0.35 | 0.299 | 0.78 | 0.815 | 0.701 | 0.661 | 0.631 | 0.995 | 0.921 | 0.928 | 0.871 | 0.86 |
| NCI-H1915 | 0.977 |  | 0.685 | 0.964 | 0.915 | 0.969 |  | 0.578 | 0.939 | 0.923 | 0.286 | 0.251 | 0.242 | 0.279 | 0.255 | 0.359 | 0.373 | 0.323 | 0.298 | 0.345 |
| CAL-12T | 1.03 | 0.889 | 0.9 | 0.978 | 0.776 | 0.521 | 0.517 | 0.389 | 0.364 | 0.232 | 0.77 | 0.738 | 0.827 | 0.804 | 0.625 | 0.543 | 0.422 | 0.347 | 0.264 | 0.23 |
| LXF-289 | 1.01 | 0.97 | 0.987 | 0.984 | 0.994 | 0.912 | 0.795 | 0.799 | 0.765 | 0.723 | 1.16 | 1.02 | 1.03 | 1.13 | 1.1 | 0.173 | 0.241 | 0.234 | 0.236 | 0.15 |
| NCI-H460 | 1.05 | 1.02 | 1.08 | 1.08 | 1.01 | 0.368 | 0.411 | 0.402 | 0.302 | 0.322 | 0.481 | 0.421 | 0.443 | 0.342 | 0.273 | 0.641 | 0.56 | 0.644 | 0.565 | 0.422 |
| NCI-H2009 | 1.06 | 1.01 | 0.987 | 0.97 | 0.875 | 0.866 | 0.767 | 0.841 | 0.762 | 0.765 | 0.666 | 0.661 | 0.666 | 0.71 | 0.549 | 0.288 | 0.287 | 0.304 | 0.278 | 0.235 |
| 201T | 1.11 | 1.2 | 1.09 | 1.11 | 1.11 | 0.701 | 0.716 | 0.639 | 0.66 | 0.652 | 0.945 | 0.839 | 0.804 | 0.829 | 0.823 | 0.56 | 0.596 | 0.669 | 0.602 | 0.573 |
| NCI-H23 | 1.12 | 1.03 | 1.08 | 1.02 | 0.672 | 0.549 | 0.472 | 0.446 | 0.462 | 0.466 | 0.37 | 0.324 | 0.319 | 0.276 | 0.242 | 0.881 | 0.942 | 0.696 | 0.78 | 0.925 |
| LOU-NH91 | 0.494 | 0.587 | 0.556 | 0.529 | 0.423 | 0.528 | 0.534 | 0.514 | 0.56 | 0.475 | 0.921 | 0.92 | 0.877 | 0.868 | 0.865 | 0.565 | 0.481 | 0.672 | 0.56 | 0.499 |
| NCI-H2085 | 1.13 | 1.02 | 1.04 | 1.05 | 1.03 | 0.515 | 0.436 | 0.429 | 0.551 | 0.422 | 0.813 | 0.752 | 0.836 | 0.803 | 0.791 | 0.228 | 0.227 | 0.258 | 0.249 | 0.246 |
| COR-L23 | 1.07 | 0.913 | 0.928 | 0.989 | 0.91 | 0.866 | 0.7 | 0.741 | 0.85 | 0.741 | 0.348 | 0.351 | 0.397 | 0.321 | 0.328 | 0.522 | 0.496 | 0.645 | 0.53 | 0.453 |
